Results on six compounds are retold here after patent publication US20110245335A1, “NEW INHIBITORS FOR TREATING DISEASES ASSOCIATED WITH AN EXCESS TRANSPORT OF HYALURONAN” (priority 2008, published 2011).

The subject of series [1] is hyaluronan export. Nature of the series: Assay for hyaluronan transport/export inhibitors in fibroblast cell culture (hyaluronan in culture medium by ELISA). Format: cell-based. The note with it: 2 days at 37° C. As to the method: Trypsinised fibroblasts were suspended in Dulbeccós medium at 10^5 cells/ml and 100 μl aliquots were transferred to a 96 well microtiter plate. The first row received 200 μl of the suspension and 20 μl of the inhibitors of the invention dissolved in phosphate buffered saline at concentrations of 4 mM. A serial dilution of the inhibitors was established by transfer of 100 μl aliquots from the first row to the following rows. All experiments were performed in duplicates. […] The cells were incubated for 2 days at 37° C. and aliquots (5 and 20 μl) of the culture medium were used for measurement of the hyaluronan concentration in the cell culture medium by an ELISA [125]. Briefly, the wells of a 96 well Covalink-NH-microtiter plate (NUNC) were coated with 100 μl of a mixture of […] of hyaluronan (Healon®), 9.2 μg/ml of N-Hydroxysuccinimide-3-sulfonic acid and 615 μl/ml of 1-ethyl-3-(3-dimethylaminopropyl)-carbodiimide for 2 hours at room temperature and overnight at 4° C. The wells were washed three times with 2 M NaCl, 41 mM MgSO4, 0.05% Tween-20 in 50 mM phosphate buffered saline pH 7.2 (buffer A) and once with 2 M NaCl, 41 mM MgSO4, in phosphate buffered saline pH 7.2. Additional binding sites were blocked by incubation with 300 μl of 0.5% bovine serum albumin in phosphate buffered saline for 30 min at 37° C. Calibration of the assay was performed with standard concentrations of hyaluronan ranging from 15 ng/ml to 6000 ng/ml in equal volumes of culture medium as used for measurement of the cellular supernatants. A solution (50 μl) of the biotinylated hyaluronan binding fragment of aggrecan (Calbiochem) in 1.5 M NaCl, 0.3 M guanidinium hydrochloride, 0.08% bovine serum albumin 0.02% NaN3 25 mM phosphate buffer pH 7.0 was preincubated with 50 μl of the standard hyaluronan solutions or cellular supernatants for 1 hour at 37° C. The mixtures were transferred to the hyaluronan-coated test plate and incubated for 1 hour at 37° C. The microtiter plate was washed three times with buffer A and incubated with 100 μl/well of a solution of streptavidin-horseraddish-peroxidase (Amersham) at a dilution of 1:100 in phosphate buffered saline, 0.1% Tween-20 for 30 min at room temperature. The plate was washed five times with buffer A and the colour was developed by incubation with a 100 μl/well of a solution of 5 mg o-phenylenediamine and 5 μl 30% H2O2 in 10 ml of 0.1 M citrate-phosphate buffer pH 5.3 for 25 min at room temperature. The adsorption was read at 490 nm. The concentrations in the samples were calculated from a logarithmic regression curve of the hyaluronan standard solutions.
On the technique in general: An ELISA detects its analyte on a solid surface through an enzyme-linked reagent.

The nature of series [2]: pKa of the acidic moiety (stated in design rationale, no method). The format is physicochemical. To be noted: approximate values given in design rationale; no method described; read-out: pKa of the carboxylic moiety or its replacement.
The subject of series [3] is II-1α activated bovine cartilage explants. To be noted: ref [14]; cited from earlier work.

SMILES strings stand for the structures.

A word on the IC50: it is the point on the concentration scale where inhibition reaches its midpoint. Read a high IC50 as weaker potency in that assay. A word on the pKa: it is the negative logarithm of the acid dissociation constant. The compound `CC(=O)Nc1c(O)cc(O)cc1Oc1ccc(Cl)cc1S(=O)(=O)O` [Compound 99] showed an IC50 in series [1] (Fibroblast, 48 h) of roughly 80 µM. Also, the pKa in series [2] is roughly 1. Consider `CC(=O)Nc1c(O)cc(O)cc1Oc1ccc(NC/C=C/c2ccccc2)cc1C(=O)O` [Compound 96], for which, in series [1] (Fibroblast, 48 h), the half-inhibitory concentration (IC50) came to 10 µM.

As to `CC(=O)Nc1ccccc1Oc1cccc(O)c1C(=O)O` [Compound 86], the “IC50 for hyaluronan export” value in series [1] is “no inhibitory activity”. In series [2], the pKa was roughly 3.

In series [1] (listed as No. 97), `CC(=O)Nc1c(O)cccc1Oc1ccccc1C(=O)NO` [Compound 97] came in with a 50% inhibitory concentration (IC50) of 30 µM. Also, in series [2], the pKa is roughly 8. With `CCCOc1ccccc1-c1nc2nn[nH]c2c(=O)[nH]1` [zaprinast], in series [3], the “infiltration of degrading enzymes” value is on record as “reduced”; the “proteoglycan content and collagen degradation” value is “normalized”. In series [1] (Fibroblast, 48 h), `CC(=O)Nc1c(O)cc(O)cc1Oc1cccc(N(C)C)c1C(=O)O` [Compound 98] displayed an IC50 of 200 µM.
